Laboratory results from patent US20130123323A1, “FUNGICIDAL PYRAZOLES” (E I DU PONT DE NEMOURS AND COMPANY, priority 2010, published 2013).

Tests used:
Type in all cases: in vivo
[1] = test system: Blumeria graminis f. sp. tritici; assay: Test F: wheat powdery mildew, test suspension sprayed on wheat seedlings the day before inoculation; conditions: sprayed to run-off, inoculated with spore dust following day, visual rating after 8 days at 20° C., 100 = 100% disease control, triplicate averaged
Procedure: General protocol for preparing test suspensions for Tests A-F: the test compounds were first dissolved in acetone in an amount equal to 3% of the final volume and then suspended at the desired concentration (in ppm) in acetone and purified water (50/50 mix) containing 250 ppm of the surfactant Trem® 014 (polyhydric alcohol esters). The resulting test suspensions were then used in Tests A-F. Each test was conducted in triplicate, and the results were averaged. Spraying a 200 ppm test suspension to the point of run-off on the test plants was the equivalent of a rate of 800 g/ha. The test suspension was sprayed to the point of run-off on wheat seedlings. The following day the seedlings were inoculated with a spore dust of Blumeria graminis f. sp. tritici (also known as Erysiphe graminis f. sp. tritici, the causal agent of wheat powdery mildew) and incubated in a growth chamber at 20° C. for 8 days, after which time visual disease ratings were made. Results for Tests A-F are given in Table A. In the Table, a rating of 100 indicates 100% disease control and a rating of 0 indicates no disease control (relative to the controls). A dash (-) indicates no test results.

[2] = test system: Septoria tritici; assay: Test D: wheat leaf blotch, test suspension sprayed on wheat seedlings the day before inoculation; conditions: sprayed to run-off, inoculated following day, visual rating after 48 h at 24° C. + 19 days at 20° C., 100 = 100% disease control, triplicate averaged
Procedure: (§1) General protocol for preparing test suspensions for Tests A-F: the test compounds were first dissolved in acetone in an amount equal to 3% of the final volume and then suspended at the desired concentration (in ppm) in acetone and purified water (50/50 mix) containing 250 ppm of the surfactant Trem® 014 (polyhydric alcohol esters). The resulting test suspensions were then used in Tests A-F. Each test was conducted in triplicate, and the results were averaged. Spraying a 200 ppm test suspension to the point of run-off on the test plants was the equivalent of a rate of 800 g/ha. The test suspension was sprayed to the point of run-off on wheat seedlings. The following day the seedlings were inoculated with a spore suspension of Septoria tritici (the causal agent of wheat leaf blotch) and incubated in saturated atmosphere at 24° C. for 48 h, and then the seedlings were moved to a growth chamber at 20° C. for 19 additional days, after which time visual disease ratings were made. Results for Tests A-F are given in Table A. In the Table, a rating of 100 indicates 100% disease control and a rating of 0 indicates no disease control (relative to the controls). A dash (-) indicates no test results.

[3] = test system: Puccinia recondita f. sp. tritici; assay: Test E2: wheat leaf rust, test suspension sprayed on wheat seedlings the day before inoculation; conditions: sprayed to run-off, inoculated following day, visual rating after 24 h + 6 days at 20° C., 100 = 100% disease control, triplicate averaged
Procedure: (§2) General protocol for preparing test suspensions for Tests A-F: the test compounds were first dissolved in acetone in an amount equal to 3% of the final volume and then suspended at the desired concentration (in ppm) in acetone and purified water (50/50 mix) containing 250 ppm of the surfactant Trem® 014 (polyhydric alcohol esters). The resulting test suspensions were then used in Tests A-F. Each test was conducted in triplicate, and the results were averaged. Spraying a 200 ppm test suspension to the point of run-off on the test plants was the equivalent of a rate of 800 g/ha. The test suspension was sprayed to the point of run-off on wheat seedlings. The following day the seedlings were inoculated with a spore suspension of Puccinia recondita f. sp. tritici (the causal agent of wheat leaf rust) and incubated in a saturated atmosphere at 20° C. for 24 h, and then moved to a growth chamber at 20° C. for 6 days, after which time visual disease ratings were made. Results for Tests A-F are given in Table A. In the Table, a rating of 100 indicates 100% disease control and a rating of 0 indicates no disease control (relative to the controls). A dash (-) indicates no test results.

[4] = test system: Puccinia recondita f. sp. tritici; assay: Test E1: wheat leaf rust, wheat seedlings sprayed after inoculation; conditions: wheat seedlings inoculated, 24 h + 2 days at 20° C., then sprayed to run-off; visual rating 4 days later; 100 = 100% disease control; triplicate averaged
Procedure: as §2, with “Wheat” for “The test suspension was sprayed to the point of run-off on wheat seedlings. The following day the”, “2 days. At the end of this time the test suspension was sprayed to the point of run-off on the wheat seedlings, and then the seedlings were moved to a growth chamber at 20° C. for 4” for “6”

[5] = test system: Alternaria solani; assay: Test B: tomato early blight, test suspension sprayed on tomato seedlings the day before inoculation; conditions: sprayed to run-off, inoculated following day, visual rating after 48 h at 27° C. + 5 days at 20° C., 100 = 100% disease control, triplicate averaged
Procedure: General protocol for preparing test suspensions for Tests A-F: the test compounds were first dissolved in acetone in an amount equal to 3% of the final volume and then suspended at the desired concentration (in ppm) in acetone and purified water (50/50 mix) containing 250 ppm of the surfactant Trem® 014 (polyhydric alcohol esters). The resulting test suspensions were then used in Tests A-F. Each test was conducted in triplicate, and the results were averaged. Spraying a 200 ppm test suspension to the point of run-off on the test plants was the equivalent of a rate of 800 g/ha. The test suspension was sprayed to the point of run-off on tomato seedlings. The following day the seedlings were inoculated with a spore suspension of Alternaria solani (the causal agent of tomato early blight) and incubated in a saturated atmosphere at 27° C. for 48 h, and then moved to a growth chamber at 20° C. for 5 days, after which time visual disease ratings were made. Results for Tests A-F are given in Table A. In the Table, a rating of 100 indicates 100% disease control and a rating of 0 indicates no disease control (relative to the controls). A dash (-) indicates no test results.

[6] = test system: Septoria nodorum; assay: Test C: wheat glume blotch, test suspension sprayed on wheat seedlings the day before inoculation; conditions: sprayed to run-off, inoculated following day, visual rating after 48 h at 24° C. + 9 days at 20° C., 100 = 100% disease control, triplicate averaged
Procedure: as §1, with “of Septoria nodorum (the causal” for “of Septoria tritici (the causal”, “of wheat glume blotch) and” for “of wheat leaf blotch) and”, “incubated in a saturated atmosphere” for “incubated in saturated atmosphere”, “and then moved to” for “and then the seedlings were moved to”, “C. for 9 days, after” for “C. for 19 additional days, after”

[7] = test system: Botrytis cinerea; assay: Test A: tomato botrytis, test suspension sprayed on tomato seedlings the day before inoculation; conditions: sprayed to run-off, inoculated following day, visual rating after 48 h at 20° C. + 3 days at 24° C., 100 = 100% disease control, 0 = no control, triplicate averaged
Procedure: General protocol for preparing test suspensions for Tests A-F: the test compounds were first dissolved in acetone in an amount equal to 3% of the final volume and then suspended at the desired concentration (in ppm) in acetone and purified water (50/50 mix) containing 250 ppm of the surfactant Trem® 014 (polyhydric alcohol esters). The resulting test suspensions were then used in Tests A-F. Each test was conducted in triplicate, and the results were averaged. Spraying a 200 ppm test suspension to the point of run-off on the test plants was the equivalent of a rate of 800 g/ha. The test suspension was sprayed to the point of run-off on tomato seedlings. The following day the seedlings were inoculated with a spore suspension of Botrytis cinerea (the causal agent of tomato botrytis) and incubated in saturated atmosphere at 20° C. for 48 h, and then moved to a growth chamber at 24° C. for 3 days, after which time visual disease ratings were made. Results for Tests A-F are given in Table A. In the Table, a rating of 100 indicates 100% disease control and a rating of 0 indicates no disease control (relative to the controls). A dash (-) indicates no test results.

SMILES: Cc1nn(C)c(C(F)c2ccc(F)cc2Cl)c1-c1c(F)cccc1Cl (centres unmarked) [Compound 6]
- Test F disease control rating [1]: 87%
- Test D disease control rating [2]: 96%
- Test E2 disease control rating [3]: 98%

SMILES: Cc1nn(C)c(C(Cl)c2ccc(F)cc2F)c1-c1c(F)cccc1F (centres unmarked) [Compound 5]
- Test E1 disease control rating [4]: 9%
- Test F disease control rating [1]: 100%
- Test B disease control rating [5]: 100%
- Test D disease control rating [2]: 100%
- Test C disease control rating [6]: 89%
- Test A disease control rating [7]: 100%
- Test E2 disease control rating [3]: 100%

SMILES: Cc1nn(C)c(C(Cl)c2ccc(F)cc2Cl)c1-c1c(F)cccc1Cl (centres unmarked) [Compound 7]
- Test F disease control rating [1]: 100%
- Test D disease control rating [2]: 100%
- Test E2 disease control rating [3]: 100%

SMILES: COc1cc(F)c(C(F)c2c(-c3c(F)cccc3F)c(C)nn2C)c(F)c1 (centres unmarked) [Compound 3]
- Test E1 disease control rating [4]: 98%
- Test F disease control rating [1]: 99%
- Test B disease control rating [5]: 46%
- Test D disease control rating [2]: 100%
- Test C disease control rating [6]: 0%
- Test A disease control rating [7]: 100%
- Test E2 disease control rating [3]: 100%

SMILES: Cc1nn(C)c(C(Cl)c2ccc(F)cc2F)c1-c1ccc(F)cc1Cl (centres unmarked) [Compound 2, 5-[Chloro(2,4-difluorophenyl)methyl]-4-(2-chloro-4-fluorophenyl)-1,3-dimethyl-1H-pyrazole]
- Test E1 disease control rating [4]: 0%
- Test F disease control rating [1]: 0%
- Test B disease control rating [5]: 0%
- Test D disease control rating [2]: 100%
- Test C disease control rating [6]: 0%
- Test A disease control rating [7]: 99%
- Test E2 disease control rating [3]: 94%

SMILES: Cc1nn(C)c(C(F)c2ccc(F)cc2F)c1-c1ccc(F)cc1Cl (centres unmarked) [Compound 1, 4-(2-Chloro-4-fluorophenyl)-5-[(2,4-difluorophenyl)fluoromethyl]-1,3-dimethyl-1H-pyrazole]
- Test E1 disease control rating [4]: 40%
- Test F disease control rating [1]: 69%
- Test B disease control rating [5]: 83%
- Test D disease control rating [2]: 98%
- Test C disease control rating [6]: 0%
- Test A disease control rating [7]: 100%
- Test E2 disease control rating [3]: 99%

SMILES: Cc1nn(C)c(C(F)c2ccc(F)cc2F)c1-c1c(F)cccc1F (centres unmarked) [Compound 4]
- Test E1 disease control rating [4]: 66%
- Test F disease control rating [1]: 0%
- Test B disease control rating [5]: 98%
- Test D disease control rating [2]: 52%
- Test C disease control rating [6]: 0%
- Test A disease control rating [7]: 99%
- Test E2 disease control rating [3]: 18%
